For data set [1], the system named is CYP1A2 activity in HepaRG cells. In words: CYP1A2 enzyme activity in differentiated HepaRG monolayers. It counts as cell-based, human. The following applies: HepaRG, 48 h.
Data set [2] deals with CYP3A4 activity in HepaRG cells. Particulars: 48 h.
In data set [3] the target is T1, human recombinant CYP1A2 (Homo sapiens, UniProt P05177).
T1 sequence (P05177 1-516): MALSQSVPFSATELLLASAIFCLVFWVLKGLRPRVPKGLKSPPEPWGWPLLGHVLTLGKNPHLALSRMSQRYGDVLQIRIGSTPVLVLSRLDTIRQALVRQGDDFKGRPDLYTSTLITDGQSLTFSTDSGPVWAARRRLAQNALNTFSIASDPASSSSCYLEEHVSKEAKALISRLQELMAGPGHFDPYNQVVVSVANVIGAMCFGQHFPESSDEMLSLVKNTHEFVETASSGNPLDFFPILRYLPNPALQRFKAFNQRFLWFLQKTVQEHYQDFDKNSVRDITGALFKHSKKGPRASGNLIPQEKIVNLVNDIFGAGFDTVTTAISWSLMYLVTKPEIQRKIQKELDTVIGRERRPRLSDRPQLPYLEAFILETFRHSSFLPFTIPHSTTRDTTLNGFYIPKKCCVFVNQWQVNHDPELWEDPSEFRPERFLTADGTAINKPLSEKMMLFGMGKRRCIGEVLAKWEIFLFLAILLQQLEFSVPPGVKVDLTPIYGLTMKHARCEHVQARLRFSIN
In words: Human recombinant CYP1A2 Supersome inhibition assay. It counts as biochemical.

The target of data set [4] is T2, human recombinant CYP2B6 (Homo sapiens, UniProt P20813).
T2 sequence (P20813 1-491): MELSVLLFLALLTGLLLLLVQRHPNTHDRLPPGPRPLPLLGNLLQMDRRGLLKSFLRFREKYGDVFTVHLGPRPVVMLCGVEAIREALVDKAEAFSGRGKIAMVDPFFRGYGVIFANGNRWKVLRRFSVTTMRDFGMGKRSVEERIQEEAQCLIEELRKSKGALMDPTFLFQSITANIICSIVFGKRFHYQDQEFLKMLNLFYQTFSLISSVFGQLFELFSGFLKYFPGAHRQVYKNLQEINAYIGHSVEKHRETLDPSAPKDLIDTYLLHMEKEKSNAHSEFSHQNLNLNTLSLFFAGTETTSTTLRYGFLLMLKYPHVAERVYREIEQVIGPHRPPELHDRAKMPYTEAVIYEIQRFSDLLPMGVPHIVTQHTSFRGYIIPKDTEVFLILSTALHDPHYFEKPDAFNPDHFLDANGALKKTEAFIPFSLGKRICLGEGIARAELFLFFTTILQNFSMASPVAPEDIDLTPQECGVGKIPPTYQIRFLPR
Put plainly: Human recombinant CYP2B6 Supersome inhibition assay. It counts as biochemical.

Data set [5] concerns the target human recombinant CYP2C19 (Homo sapiens, UniProt P33261). In words: Human recombinant CYP2C19 Supersome inhibition assay. It counts as biochemical.
For data set [6], the target named is human recombinant CYP2E1 (Homo sapiens, UniProt P05181). In words: Human recombinant CYP2E1 Supersome inhibition assay. It counts as biochemical.
Data set [7] has as its target human recombinant CYP3A4 (Homo sapiens, UniProt P08684). Put plainly: Human recombinant CYP3A4 Supersome inhibition assay. It counts as biochemical.
The test system of data set [8] is CYP1A2. In words: CYP1A2 enzyme activity in differentiated HepaRG monolayers. Format: cell-based, human. The following applies: human, differentiated HepaRG cell monolayers, probe luciferin-1A2 (6 µM).
For data set [9] the following is noted: humans, estimated average; ref Olsen et al. 2007; cited from earlier work.
[10] abbreviates: 1 nM PFAS in binary mixture with 10 µM BaP.
Setting [11] is: 1 µM PFAS in binary mixture with 10 µM BaP.
Setting [12] is: 1 nM PFAS in binary mixture with 10 µM rifampicin.
Setting [13] is: 1 µM PFAS in binary mixture with 10 µM rifampicin.

Counter-ions that a name gives are not always drawn. Like-named read-outs stand apart in the source and are kept apart here. Bounds are passed on as bounds.

This is an account of results in article PMC10412865 (Current Research in Toxicology, 2023).

Chain of human recombinant CYP2E1 (P05181 whole entry): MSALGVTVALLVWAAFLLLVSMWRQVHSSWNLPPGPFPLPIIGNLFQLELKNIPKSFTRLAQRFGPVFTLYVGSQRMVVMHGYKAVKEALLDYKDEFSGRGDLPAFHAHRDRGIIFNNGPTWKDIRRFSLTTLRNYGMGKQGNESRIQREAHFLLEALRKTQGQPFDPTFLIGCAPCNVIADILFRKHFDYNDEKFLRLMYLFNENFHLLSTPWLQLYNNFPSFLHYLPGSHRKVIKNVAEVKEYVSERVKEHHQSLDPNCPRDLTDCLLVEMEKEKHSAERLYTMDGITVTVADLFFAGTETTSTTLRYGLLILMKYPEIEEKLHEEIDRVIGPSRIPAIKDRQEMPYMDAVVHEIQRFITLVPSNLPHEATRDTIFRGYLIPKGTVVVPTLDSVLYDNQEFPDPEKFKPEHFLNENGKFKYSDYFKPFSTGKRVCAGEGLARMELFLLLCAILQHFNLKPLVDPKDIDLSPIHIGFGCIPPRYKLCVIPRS
Chain of human recombinant CYP3A4 (P08684 whole entry): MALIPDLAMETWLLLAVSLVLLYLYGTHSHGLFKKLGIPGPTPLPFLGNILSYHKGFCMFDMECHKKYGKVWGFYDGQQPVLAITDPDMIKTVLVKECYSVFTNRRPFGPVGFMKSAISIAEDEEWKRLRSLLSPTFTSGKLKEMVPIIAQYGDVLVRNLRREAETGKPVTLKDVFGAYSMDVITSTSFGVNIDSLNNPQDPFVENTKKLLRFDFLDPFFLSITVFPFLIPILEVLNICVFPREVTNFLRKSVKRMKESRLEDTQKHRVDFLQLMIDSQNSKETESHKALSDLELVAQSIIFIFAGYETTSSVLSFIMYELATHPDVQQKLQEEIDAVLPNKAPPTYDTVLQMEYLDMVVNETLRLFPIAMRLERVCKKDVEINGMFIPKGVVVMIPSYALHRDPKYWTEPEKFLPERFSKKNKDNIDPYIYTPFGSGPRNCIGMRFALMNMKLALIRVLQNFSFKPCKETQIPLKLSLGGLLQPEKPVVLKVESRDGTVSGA
Chain of human recombinant CYP2C19 (P33261 whole entry): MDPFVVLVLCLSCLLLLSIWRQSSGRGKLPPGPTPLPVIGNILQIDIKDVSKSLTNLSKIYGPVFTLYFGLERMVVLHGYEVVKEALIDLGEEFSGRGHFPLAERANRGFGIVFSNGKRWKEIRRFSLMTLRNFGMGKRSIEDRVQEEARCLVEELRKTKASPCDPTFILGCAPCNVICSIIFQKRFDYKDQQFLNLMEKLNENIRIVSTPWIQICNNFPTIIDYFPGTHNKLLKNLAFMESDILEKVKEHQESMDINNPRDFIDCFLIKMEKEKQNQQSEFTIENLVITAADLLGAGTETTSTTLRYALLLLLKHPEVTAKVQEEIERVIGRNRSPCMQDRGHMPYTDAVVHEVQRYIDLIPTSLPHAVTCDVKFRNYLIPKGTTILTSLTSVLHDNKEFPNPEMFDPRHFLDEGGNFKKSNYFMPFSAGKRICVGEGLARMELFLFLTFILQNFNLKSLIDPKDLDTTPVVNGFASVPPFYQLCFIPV

For `OCCC(F)(F)C(F)(F)C(F)(F)C(F)(F)C(F)(F)C(F)(F)F` [6:2 FTOH, 6:2 Fluorotelomer alcohol], the “CYP1A2 activity (% of the solvent control)” value in [1] (1 nM PFAS alone) was 168.4%; in [1] (setting [10]), “lower”; in data set [1] (1 µM PFAS alone), 148.4%; in data set [1] (setting [11]) it was “lower”. Further, the “CYP3A4 activity (% of the solvent control)” value in data set [2] (1 nM PFAS alone) is reported as “no statistically significant differences”; in data set [2] (setting [12]) it was “not statistically different from the inducer nor the solvent control”; in data set [2] (1 µM PFAS alone), “no statistically significant differences”; in [2] (setting [13]) it was “not statistically different from the inducer nor the solvent control”.
`O=C(O)C(F)(OC(F)(F)C(F)(F)C(F)(F)F)C(F)(F)F` (centres unmarked) [HFPO-DA, Undecafluoro-2-methyl-3-oxahexanoic acid]: the “CYP1A2 activity (% of the solvent control)” value in data set [1] (1 nM PFAS alone) is recorded as “neither concentration of HFPO-DA nor PFHxS had a significant effect”; in [1] (setting [10]), “decreased activity”; in data set [1] (1 µM PFAS alone), “neither concentration of HFPO-DA nor PFHxS had a significant effect”; in data set [1] (setting [11]), “decreased activity”. In addition, the “CYP3A4 activity (% of the solvent control)” value in data set [2] (setting [12]) and in data set [2] (setting [13]) was “did not influence the CYP3A4 activity” each time.
`O=S(=O)(O)C(F)(F)C(F)(F)C(F)(F)C(F)(F)F` [PFBS, Perfluorobutanesulfonic acid]: the “CYP1A2 activity (% of the solvent control)” value came to 205.4% in [1] (1 nM PFAS alone), 130.9% in data set [1] (setting [10]), 204.4% in data set [1] (1 µM PFAS alone) and 128.5% in data set [1] (setting [11]). For the same compound, the “CYP3A4 activity (% of the solvent control)” value in data set [2] (setting [12]) is listed as “concentration-dependent decrease”.
As for `O=C(O)C(F)(F)C(F)(F)C(F)(F)C(F)(F)C(F)(F)F` [PFHxA, Perfluorohexanoic acid], the “CYP1A2 activity (% of the solvent control)” value in data set [1] (1 nM PFAS alone) was “increased CYP1A2 activity”; in [1] (setting [10]), “no significant differences”; in [1] (1 µM PFAS alone) it was “increased CYP1A2 activity”; in data set [1] (setting [11]), “no significant differences”. In addition, the “CYP3A4 activity (% of the solvent control)” value in [2] (setting [13]) was “not in those exposed to the higher (1 µM) concentrations”.
Broadly, the IC50 is the concentration needed to halve the response being measured. As for `O=S(=O)(O)C(F)(F)C(F)(F)C(F)(F)C(F)(F)C(F)(F)C(F)(F)F` [PFHxS, Perfluorohexanesulfonic acid potassium salt], the IC50 in data set [3] is 13.8 µM; in data set [4] it was more than 100 µM; in data set [5], 51.6 µM; in [6] it was more than 100 µM; in [7], more than 100 µM. Besides, the “CYP1A2 activity (% of the solvent control)” value in data set [1] (1 nM PFAS alone) and in data set [1] (1 µM PFAS alone) was “no significant differences” throughout. For the same compound, the activity at 48 h, 1 nM in data set [8] was 80.2%. In addition, the activity at 48 h, 1 µM in [8] is 122%. Also, the “CYP3A4 activity (% of the solvent control)” value in data set [2] (setting [12]) and in data set [2] (setting [13]) was “significantly lower relative to rifampicin alone” in each case.
`O=C(O)C(F)(F)C(F)(F)C(F)(F)C(F)(F)C(F)(F)C(F)(F)C(F)(F)F` [PFOA, Perfluorooctanoic acid]: the IC50 in data set [3] was more than 100 µM; in [4], 96.9 µM; in [5], more than 100 µM; in data set [6] it was more than 100 µM; in [7], more than 100 µM. The “half-life of serum elimination” value in data set [9] is 3.5 years.
